Test results from US20120309622A1, “HERBICIDES CONTAINING SUBSTITUTED THIEN-3-YL-SULPHONYLAMINIO(THIO)CARBONYL-TRIAZOLIN(ETHI)ONES” (BAYER INTELLECTUAL PROPERTY GMBH, priority 2001, published 2012).
Where “and” joins values, the source holds several entries; their conditions need not be identical. Identical values can stand only once. Like-named read-outs stand apart in the source and are kept apart here.

What was measured:
Format in all cases: in vivo
Lolium perenne = assay: Post-emergence test/greenhouse, % damage after three weeks
Eriochloa villosa = assay: as above
Veronica persicaria = assay: as above
Experimental: (§1) The expected action for a given combination of two herbicides can be calculated as follows (cf. COLBY, S. R.: “Calculating synergistic and antagonistic responses of herbicide combinations”, Weeds 15, pages 20-22, 1967):
(§2) If the actual damage exceeds the calculated value, the combination has a superadditive effect, that is to say a synergistic effect.
(§3) Test plants are grown under control conditions (temperature and light).
(§4) Following the spray application, the plant containers are kept in the greenhouse under constant light and temperature conditions.
(§5) After three weeks, the degree of damage to the plants is rated in % damage in comparison to the development of the untreated control.

Cassia tora = assay: as above
Experimental: as §1, §2, §3, §4, §5

Bromus secalinus = assay: as above; details: for pest or weed control at 2 g/ha: 2 g of ai/ha; for pest or weed control at 4 g/ha: 4 g of ai/ha
Experimental: as §1, §2, §3, §4, §5

Galium aparine = assay: as above; details: 4 g of ai/ha
Alopecurus myosuroides = assay: as above
Source text: as §1
(§6) If • X=% damage by herbicide A (active compound of the formula I) at an application rate of p kg/ha and • Y=% damage by herbicide B (active compound of the formula II) at an application rate of q kg/ha and • E=the expected damage of herbicides A+B at an application rate of p+q kg/ha, then
as §2
(§7) Test plants are grown under control conditions (temperature and light). Once the plants have reached a height of 5 to 15 cm, the test compound or the combination of test compounds is applied by spraying such that the particular amounts of active compound desired are applied per unit area. The concentration of the spray liquor is chosen so that the particular amounts of active compound desired are applied in 500 litres of water/ha.
as §4, §5
(§8) The figures denote: • 0%=no effect (like untreated control) • 100%=total destruction

Viola arvensis = assay: as above
Source text: as §1, §6, §2, §7, §4, §5, §8

Abutilon theophrasti = assay: as above
Source text: as §1, §6, §2, §7, §4, §5, §8

Avena fatua = assay: as above
Source text: as §1, §6, §2, §7, §4, §5, §8

Matricaria inodora = assay: as above
Source text: as §1, §6, §2, §7, §4, §5, §8

Xanthium strumarium = assay: as above
Source text: as §1, §6, §2, §7, §4, §5, §8

Digitaria sanguinalis = assay: as above
Source text: as §1, §6, §2, §7, §4, §5, §8

Setaria viridis = assay: as above; details: for Setria viridis observed: post-emergence
Source text: as §1, §6, §2, §7, §4, §5, §8

Chenopodium album = assay: as above
Source text: as §1, §6, §2, §7, §4, §5, §8

Ipomoea hederacea = assay: as above
Source text: as §1, §6, §2, §7, §4, §5, §8

Cyperus esculentus = assay: as above
Source text: as §1, §6, §2, §7, §4, §5, §8

test plants = assay: Post-emergence test/greenhouse, % damage after three weeks (further test plants, Tables A-1-30 to A-1-104)
Source text: as §1, §6, §2, §7, §4, §5, §8

Polygonum convolvolus = assay: Post-emergence test/greenhouse, % damage after three weeks
[1] = Bromus secalinus, post-emergence, 504 h, read-out: Bromus secalinus observed

## COC(=O)c1csc(C)c1S(=O)(=O)NC(=O)n1nc(OC)n(C)c1=O [I-2]
Lolium perenne; 2 g of ai/ha
  Lolium perenne observed: 70% and 80%
Lolium perenne; 4 g of ai/ha
  Lolium perenne observed: 70%
Lolium perenne; 8 g of ai/ha
  Lolium perenne observed: 90%
Eriochloa villosa; 4 g of ai/ha
  Eriochloa villosa observed: 40% and 30%
Eriochloa villosa; 8 g of ai/ha
  Eriochloa villosa observed: 70% and 60% and 90%
Veronica persicaria; 2 g of ai/ha
  Veronica persicaria observed: 0%
Veronica persicaria; 15 g of ai/ha
  Veronica persicaria observed: 60% and 40%
Cassia tora; 2 g of ai/ha
  Cassia tora observed: 20%
Cassia tora; 4 g of ai/ha
  Cassia tora observed: 0%
Cassia tora; 8 g of ai/ha
  Cassia tora observed: 0%
Bromus secalinus; [1]
  pest or weed control at 2 g/ha: 70%
  pest or weed control at 4 g/ha: 70%
Bromus secalinus; Bromus secalinus, post-emergence, 504 h, 8 g of ai/ha, read-out: Bromus secalinus observed
  pest or weed control at 8 g/ha: 80%
Bromus secalinus; Bromus secalinus, post-emergence, 504 h, 15 g of ai/ha, read-out: Bromus secalinus observed
  pest or weed control at 15 g/ha: 70%
Bromus secalinus; Bromus secalinus, post-emergence, 504 h, application rate 8 g of ai/ha, read-out: Bromus secalinus observed
  pest or weed control at 8 g/ha: 80%
Galium aparine
  Galium aparine observed: 80%
Alopecurus myosuroides; 2 g of ai/ha
  Alopecurus myosuroides observed: 70% and 80%
Alopecurus myosuroides; 4 g of ai/ha
  Alopecurus myosuroides observed: 70% and 80%
Alopecurus myosuroides; 8 g of ai/ha
  Alopecurus myosuroides observed: 90% and 80%
Alopecurus myosuroides; 15 g of ai/ha
  Alopecurus myosuroides observed: 90% and 80%
Viola arvensis; 4 g of ai/ha
  Viola arvensis observed: 40%
Viola arvensis; 8 g of ai/ha
  Viola arvensis observed: 50%
Abutilon theophrasti; 2 g of ai/ha
  Abutilon theophrasti observed: 60%
Abutilon theophrasti; 4 g of ai/ha
  Abutilon theophrasti observed: 70%
Abutilon theophrasti; 8 g of a.i./ha
  Activity against Abutilon theophrasti (%): 70%
Avena fatua; 2 g of ai/ha
  Avena fatua observed: 70% and 50% and 80%
Avena fatua; 4 g of ai/ha
  Avena fatua observed: 80% and 70% and 90%
Avena fatua; 8 g of ai/ha
  Avena fatua observed: 70% and 90%
Avena fatua; 15 g of ai/ha
  Avena fatua observed: 70%
Matricaria inodora; 2 g of ai/ha
  Matricaria inodora observed: 50% and 80%
Matricaria inodora; 4 g of ai/ha
  Matricaria inodora observed: 70%
Matricaria inodora; 15 g of ai/ha
  Matricaria inodora observed: 95%
Xanthium strumarium; 4 g of ai/ha
  Xanthium strumarium observed: 90%
Xanthium strumarium; 8 g of ai/ha
  Xanthium strumarium observed: 70%
Digitaria sanguinalis; 4 g of ai/ha
  Digitaria sanguinalis observed: 60%
Digitaria sanguinalis; 8 g of ai/ha
  Digitaria sanguinalis observed: 80% and 90%
Setaria viridis; 2 g of ai/ha
  Setaria viridis observed: 90%
Setaria viridis; 4 g of ai/ha
  Setaria viridis observed: 80% and 90%
Setaria viridis; 8 g of ai/ha
  Setaria viridis observed: 90% and 95%
Setaria viridis; application rate 2 g of ai/ha
  Setria viridis observed: 90%
Setaria viridis; application rate 4 g of ai/ha
  Setria viridis observed: 90%
Chenopodium album; 4 g of ai/ha
  Chenopodium album observed: 70%
Chenopodium album; 8 g of a.i./ha
  Activity against Chenopodium album (%): 70%
Chenopodium album; 8 g of ai/ha
  Chenopodium album observed: 85%
Chenopodium album; application rate 2 g of ai/ha
  Chenopodium album observed: 70%
Ipomoea hederacea; 2 g of ai/ha
  Ipomoea hederacea observed: 80%
Ipomoea hederacea; 4 g of ai/ha
  Ipomoea hederacea observed: 80%
Ipomoea hederacea; 8 g of ai/ha
  Ipomoea hederacea observed: 80%
Cyperus esculentus; 8 g of ai/ha
  Cyperus esculentus observed: 80% and 70%
Cyperus esculentus; 15 g of ai/ha
  Cyperus esculentus observed: 70%
Test plants; application rate 2 g of ai/ha
  Polygonum convolvolus observed: 70%
Test plants; application rate 4 g of ai/ha
  Polygonum convolvolus observed: 80%
Test plants; application rate 8 g of ai/ha
  Polygonum convolvolus observed: 90%
Polygonum convolvolus; 2 g of ai/ha
  Polygonum convolvolus observed: 70%
Polygonum convolvolus; 4 g of ai/ha
  Polygonum convolvolus observed: 70% and 80%

## CCOC(=O)[C@@H](C)Oc1ccc(Oc2nc3ccc(Cl)cc3o2)cc1 [fenoxaprop-(P)-ethyl, reference compound]
Veronica persicaria; 8 g of ai/ha
  Veronica persicaria observed: 0%
Veronica persicaria; 15 g of ai/ha
  Veronica persicaria observed: 0%
Veronica persicaria; 30 g of ai/ha
  Veronica persicaria observed: 0%
Bromus secalinus; 8 g of ai/ha
  Bromus secalinus observed: 0%
Bromus secalinus; 15 g of ai/ha
  Bromus secalinus observed: 0%
Bromus secalinus; 30 g of ai/ha
  Bromus secalinus observed: 0%
Ipomoea hederacea; 30 g of ai/ha
  Ipomoea hederacea observed: 0%

## COc1nn(C(=O)NS(=O)(=O)c2ccccc2OC(F)(F)F)c(=O)n1C.[Na] [flucarbazone-sodium, 4,5-dihydro-3-methoxy-4-methyl-5-oxo-N-[(2-trifluoromethoxyphenyl)-sulphonyl]-1-H-1,2,4-triazole-1-carboxamide sodium salt, reference compound]
Veronica persicaria; 30 g of ai/ha
  Veronica persicaria observed: 20%
Veronica persicaria; 60 g of ai/ha
  Veronica persicaria observed: 60%
Bromus secalinus; 60 g of ai/ha
  Bromus secalinus observed: 70%
Viola arvensis; 15 g of ai/ha
  Viola arvensis observed: 30%

## COC(=O)c1ccc(C(F)(F)F)nc1S(=O)(=O)NC(=O)Nc1nc(OC)cc(OC)n1.[Na] [flupyrsulfuron, N-(4,6-dimethoxypyrimidin-2-yl)-N′-(3-methoxycarbonyl-6-trifluoromethylpyridin-2-ylsulphonyl)urea sodium salt, reference compound]
Bromus secalinus; [1]
  pest or weed control at 2 g/ha: 0%
  pest or weed control at 4 g/ha: 0%
Digitaria sanguinalis; 4 g of ai/ha
  Digitaria sanguinalis observed: 20%
Polygonum convolvolus; 2 g of ai/ha
  Polygonum convolvolus observed: 70%
Polygonum convolvolus; 4 g of ai/ha
  Polygonum convolvolus observed: 80%

## COc1cc(OC)nc(NC(=O)NS(=O)(=O)c2cc(NC=O)ccc2C(=O)N(C)C)n1 [foramsulfuron]
Eriochloa villosa; 15 g of ai/ha
  Eriochloa villosa observed: 60%
Ipomoea hederacea; 15 g of ai/ha
  Ipomoea hederacea observed: 80%
Cyperus esculentus; 8 g of ai/ha
  Cyperus esculentus observed: 80%
